# Assay results: patent US20120039816A1, “USE OF 7-CHLORO-N,N,5-TRIMETHYL-4-OXO-3-PHENYL-3,5-DIHYDRO-4H-PYRIDAZINO[4,5-B] INDOLE-1-ACETAMIDE AS A BIOMARKER OF PERIPHERAL BENZODIAZEPINE RECEPTOR LEVELS” (SANOFI-AVENTIS, priority 2008, published 2012)
# What was measured:
# [1] = target: T1, PBR (Homo sapiens, UniProt P30536); conditions: in vitro and in vivo; cited from earlier work
# [2] = tested on: PBR; experiment: PET imaging in quinolinic acid primate model of neuroinflammation; assay type: in vivo, Cynomolgus macaques (Macaca fascicularis)
# Method: Cynomolgus macaques (Macaca fascicularis) weighing 4-5 kg were housed in thermoregulated, humidity controlled facilities under a 12 h/12 h light/dark cycle (light on between 7 h a.m. and 7 h p.m.) and were allowed free access to food and water. Neuroinflammation was induced by local sterotaxic injections of quinolinic acid (quinolinic acid, Sigma, St. Louis, Mo.; dissolved in 0.1 M PBS, pH 7.2) into the primate striatum (1 injection site into caudate and 2 injection sites into the putamen) during two different surgical interventions where quinolinic acid was injected into one hemisphere on day 1 and the second hemisphere 2 weeks or 7 months later (FIGS. 8 and 9). During each surgical session the animals received 60 nmol of quinolinic acid distributed over three different striatal sites, one 5 μL site in the caudate and two 10 μL sites in the putamen using a 10 μL-Hamilton syringe attached to a 26-gauge needle. […] The excitotoxin was injected at a rate of 0.1 μL/min and the injection syringe left in place for an additional 5 min to avoid backflow of the toxin. Throughout the surgery, the primate temperature was maintained normothermic (rectal temperature, 36° C.±0.6° C., mean±SD). After removing the needle, the skin was sutured and the animals were allowed to recover from anesthesia and returned to their cages when fully awake.
# Imaging sessions were performed before and at various times after quinolinic acid injection (24 hrs, 48 hrs, 9 days, 16 days and 7 months post lesion).
# One hour before PET imaging, animals were anaesthetized by intramuscular injection of a ketamine/xylazine mixture (15 mg/kg/1.5 mg/kg) and intubated. Catheters were then placed in a saphenous vein for radiotracer injection and in a femoral artery for blood sampling. Animals were maintained anaesthetized by an intravenous injection of propofol (Diprivan® 1%; 0.05 mg·kg^−1·min^−1).
# To ensure correct positioning of the animal in the apparatus, the animal's head was secured in a home-made stereotactic frame. PET scans were performed using the high-resolution Focus micro-PET (CTI-Siemens, Knoxville, Tenn.), which acquires 95 contiguous planes simultaneously. For attenuation correction, a transmission scan was first performed using a ^68Ge rotating rod source.
# (§1) PET image analysis was performed using ASIPro VM™ (CTI Concorde Microsystems' Analysis Tools and System Setup/Diagnostics Tool) and Brainvisa/Anatomist (http://brainvisa.info/).
# [3] = target: T2, PBR (peripheral benzodiazepine receptor) (Rattus norvegicus, UniProt P16257); experiment: MicroPET imaging in AMPA-lesioned rat model of neuroinflammation; assay type: in vivo, Wistar rats
# T2 construct: lesioned striatum of AMPA-injected rats (the region in which PBR expression is induced); from tissue; host or cells: brain (AMPA-lesioned and intact striatum) of Wistar rats, imaged in vivo or cut into 20 µm sections
# Method: Wistar rats (average body weight 300 g, centre d'Élevage René Janvier, France) were kept in thermoregulated, humidity controlled facilities under a 12 h/12 h light/dark cycle (light on between 7 h AM and 7 h PM) and were allowed free access to food and water. […] AMPA (0.5 μL) was injected into the right striatum (Bregma+0.7 mm, from sagittal suture: 2.7 mm, depth from brain surface: 5.5 mm).
# (§2) MicroPET imaging was performed 7 days post-AMPA injection in rats and in 11-12 month old transgenic mice. In both mice and rats, anaesthesia was induced by isoflurane 5%, and thereafter maintained by 2-2.5% of isoflurane in a mixture of 70%/30% […]. […] Mice were placed on a bed equipped with an anaesthetic mask allowing heating of the air flow and the rectal temperature was monitored using the Homeothermic Blanket Control Unit.
# (§3) In rats, radiolabelled compounds and unlabelled ligands were injected in the caudal vein with the use of 24 gauge catheter. Radiolabelled compounds were injected concomitantly at the start of the PET acquisition and unlabelled compounds were injected 20 min after injection of radiotracers. PET data were acquired for 80 min. In mice, radiolabelled compounds were injected in the caudal vein using 28 gauge needles immediately before the PET scan initiation. PET data were acquired for 60 min.
# as §1
# [4] = target: PBR (Rattus norvegicus, UniProt P16257); conditions: excess unlabelled PK11195 (23 μM) or A (22 μM), FIG. 5
# [5] = Metabolite analysis in rat blood and brain; assay type: in vivo, Wistar rats
# Method: A blood sample was collected and plasma isolated by centrifugation (5 min, 3000 rpm). Plasma proteins were precipitated from 400 μL of serum by addition of 400 μL of acetonitrile. After centrifugation (5 min, 3000 rpm), the supernatant was injected onto the HPLC column. Rat brains were removed and hemispheres were separated. Homogenisation by sonication was performed in 1 mL of acetonitrile per hemisphere. After a rapid centrifugation, the supernatant was separated from the pellet and concentrated under reduced pressure before injection onto the HPLC (see radiochemistry section for HPLC conditions).
# [6] = target: T3, PBR (Mus musculus, UniProt P50637); experiment: MicroPET imaging in APP×PS1 and PS1 transgenic mice; assay type: in vivo; conditions: for uptake in APP×PS1 vs wild type PS1: whole brain, 11-12 month old mice, PET
# T3 construct: from tissue; host or cells: brain of PS1 and APPxPS1 transgenic mice, imaged in vivo at 11-12 months or cut into sections at 20-23 months
# From the text: Generation and characterization of single PS1M146L (PS1) and double APP751SL×PS1M146L (APP×PS1) transgenic mice were achieved, as described previously (Blanchard, V. et al. (2003) Exp. Neurol. 184: 247-263). In these animals APP is expressed at a high level in all cortical neurons under the control of the Thy-1 promoter. Human PS1 with the M146L mutation is expressed under the control of the HMG-CoA reductase promoter. […] Both single PS1 and double APP×PS1 mice, provided by Sanofi-Aventis, were used for PET imaging at the age of 11-12 months and autoradiography at 20-23 months.
# as §2, §3, §1
# [7] = target: T1, PBR; conditions: PET ligand; cited from earlier work
# [8] = systemic, large excess (1 mg/kg), 30 min after radiotracer injection (FIG. 9)
# T1 sequence (P30536 whole entry, species assumed): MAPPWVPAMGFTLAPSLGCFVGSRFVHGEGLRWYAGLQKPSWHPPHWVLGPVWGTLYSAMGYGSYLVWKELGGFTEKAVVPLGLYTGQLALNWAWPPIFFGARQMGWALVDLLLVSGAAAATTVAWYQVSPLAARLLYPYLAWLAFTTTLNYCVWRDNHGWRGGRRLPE
structure (smiles),measurement,setting,value
"CN(C)C(=O)Cc1nn(-c2ccccc2)c(=O)c2c1c1ccc(Cl)cc1n2C [A, 7-chloro-N,N,5-trimethyl-4-oxo-3-phenyl-3,5-dihydro-4H-pyridazino[4,5-b]indole-1-acetamide]",affinity for the PBR,[1],high affinity
CCC(C)N(C)C(=O)c1cc2ccccc2c(-c2ccccc2Cl)n1 (stereo not drawn) [PK11195],effect of excess unlabelled compound on [^11C]-A binding in lesioned striatum,[2]; [8],specific displacement
same,effect of excess unlabelled compound on [^11C]-A binding in non-lesioned control brain regions,[2]; [8],no noticeable changes
same,effect of unlabelled compound on [^11C]-A binding in the controlateral side,"[3]; 1 mg/kg i.v., 20 min post [^11C]-A injection",small increase
same,effect of unlabelled compound on brain uptake of [^11C]-A in lesioned striatum,"[3]; 1 mg/kg i.v., 20 min post [^11C]-A injection (FIG. 3, 4)",significantly reduced
same,effect of excess unlabelled ligand on ipsilateral to contralateral ratio of [^11C]-A binding,[4],abolished
"CN(C)C(=O)Cc1nn(-c2ccccc2)c(=O)c2c1c1ccc(Cl)cc1n2[11CH3] [[^11C]-A, 7-Chloro-N,N-dimethyl-5-[^11C]methyl-4-oxo-3-phenyl-3,5-dihydro-4H-pyridazino[4,5-b]indole-1-acetamide]",metabolites present in brain,"[5]; rats, 10, 20 and 30 min after [^11C]-A injection (FIG. 10)",essentially detected the parent compound only
same,metabolites present in blood and plasma,"[5]; rats, 10 and 20 min after [^11C]-A injection (FIG. 10)",essentially detected the parent compound only
same,uptake in lesioned striatum,"[2]; 7 months after excitotoxin injection, right striatum",returned to baseline levels
same,"uptake in lesioned right striatum compared to contralateral non-injected striatum and control brain regions (cerebellum, prefrontal cortex)",[2]; 24 hrs after excitotoxin injection (FIG. 8),significantly higher
same,increase in uptake in lesioned striatum,"[2]; 48 hrs after excitotoxin injection, left hemisphere",could still be visualized
same,time window of increased uptake after lesion,[2]; early phase of neuroinflammation (FIG. 9),can be visualised from 24 hrs up to 16 days
same,uptake in contralateral non-injected striatum,[2]; same level as brain regions of a non-injected primate (FIG. 8),remained stable
same,uptake in whole brain (cerebellum excluded) compared to [^11C]PK11195,"[6]; APP×PS1 and wild type PS1 transgenic mice, 11-12 months (FIG. 6)",higher
same,uptake in APP×PS1 vs wild type PS1,[6],not significantly higher
"CC[C@@H](C)N([11CH3])C(=O)c1cc2ccccc2c(-c2ccccc2Cl)n1 [[^11C]PK11195, (R)—N—[^11C]Methyl-N-(1-methylpropyl)-1-(2-chlorophenyl)isoquinoline-3-carboxamide]",R1,"[3]; AMPA-injected rats, PET",1.10±0.05
same,binding potential (BP),"[3]; AMPA-injected rats, PET",0.66±0.15
same,brain uptake,[7],relatively low brain uptake
same,non-specific binding,[7],high non-specific binding
same,signal to noise ratio,[7],poor signal to noise ratio
same,uptake in APP×PS1 vs wild type PS1,[6],not significantly higher
